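Compound exposure: 48 hours, 5 concentrations, 96-well plates. The concentration for 50% growth inhibition is given as GI50. Definition used: TGI = concentration required for complete inhibition of growth.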
Assays:
Test in all cases: NCI-60 cell line screen, 48 h
[1] = test system: HOP-62 NSCLC
[2] = test system: MOLT-4 leukemia
[3] = test system: NCI-H522 lung
[4] = test system: CAKI-1 renal
[5] = test system: ACHN renal
[6] = test system: IGROV1 ovarian
[7] = test system: A549 NSCLC
[8] = test system: T-47D breast
[9] = test system: SW-620 colon
[10] = test system: CCRF-CEM leukemia
[11] = test system: HCT-15 colon
[12] = test system: NCI/ADR-RES ovarian
[13] = test system: SF-268 CNS
[14] = test system: SNB-19 CNS
[15] = test system: OVCAR-4 ovarian
[16] = test system: SR leukemia
[17] = test system: K-562 leukemia
[18] = test system: SF-295 CNS
[19] = test system: HCC-2998 colon
[20] = test system: SF-539 CNS
[21] = test system: KM12 colon
[22] = test system: NCI-H460 lung
[23] = test system: 786-0 renal
[24] = test system: UACC-62 melanoma
[25] = test system: MALME-3M melanoma
[26] = test system: SK-OV-3 ovarian
[27] = test system: SNB-75 CNS
[28] = test system: MCF7 breast
[29] = test system: OVCAR-5 ovarian
[30] = test system: HL-60(TB) leukemia
[31] = test system: MDA-MB-435
[32] = test system: DU-145 prostate
[33] = test system: UACC-257 melanoma
[34] = test system: HCT-116 colon
[35] = test system: OVCAR-3 ovarian
[36] = test system: HT29 colon
[37] = test system: OVCAR-8 ovarian
[38] = test system: PC-3 prostate
[39] = test system: EKVX NSCLC
[40] = test system: M14 melanoma
[41] = test system: NCI-H23 lung
[42] = test system: BT-549 breast
[43] = test system: TK-10 renal
[44] = test system: HOP-92 NSCLC
[45] = test system: SK-MEL-5 melanoma
[46] = test system: UO-31 renal
[47] = test system: MDA-MB-231 breast
[48] = test system: RPMI-8226 leukemia
[49] = test system: NCI-H226 lung
[50] = test system: RXF 393 renal
[51] = test system: A498 renal
[52] = test system: SK-MEL-2 melanoma
[53] = test system: SN12C renal
[54] = test system: U251 CNS
[55] = test system: COLO 205 colon
[56] = test system: LOX IMVI melanoma
[57] = test system: HS 578T breast

`CCCCCCCCn1ccc2cc(NC(=O)Cn3cc(CN4CCN(CC)CC4)nn3)ccc21` was tested, and the GI50 [1] was 1.7 µM, the TGI [1] was 3.33 µM and the GI50 [2] was 2.58 µM. For the same molecule, the TGI [2] was 6.68 µM, the GI50 [3] was 1.89 µM and the TGI [3] was 3.84 µM. The GI50 [4] was 1.8 µM, the TGI [4] was 3.43 µM and the GI50 [5] was 1.82 µM. The TGI [5] was 3.47 µM, the GI50 [6] was 2.17 µM and the TGI [6] was 5.98 µM. It also gave a GI50 [7] of 1.99 µM, a TGI [7] of 4.1 µM and a GI50 [8] of 1.81 µM. For the same molecule, the TGI [8] was 3.56 µM, the GI50 [9] was 1.9 µM and the TGI [9] was 3.62 µM. The GI50 [10] was 3.06 µM, the TGI [10] was 10.3 µM and the GI50 [11] was 1.78 µM. It also gave a TGI [11] of 3.79 µM, a GI50 [12] of 12.2 µM and a TGI [12] of 27.7 µM. It also gave a GI50 [13] of 1.9 µM, a TGI [13] of 4.01 µM and a GI50 [14] of 1.9 µM. The TGI [14] was 3.77 µM, the GI50 [15] was 6.46 µM and the TGI [15] was 19.2 µM. It also gave a GI50 [16] of 3.35 µM, a TGI [16] of 11.8 µM and a GI50 [17] of 2.05 µM. The TGI [17] was 4.34 µM, the GI50 [18] was 1.87 µM and the TGI [18] was 3.7 µM. The GI50 [19] was 1.84 µM, the TGI [19] was 3.43 µM and the GI50 [20] was 1.68 µM. For the same molecule, the TGI [20] was 3.17 µM, the GI50 [21] was 2.08 µM and the TGI [21] was 4.74 µM. The GI50 [22] was 1.94 µM, the TGI [22] was 3.68 µM and the GI50 [23] was 1.61 µM. The TGI [23] was 3.11 µM, the GI50 [24] was 1.91 µM and the TGI [24] was 3.5 µM. The GI50 [25] was 1.68 µM, the TGI [25] was 3.17 µM and the GI50 [26] was 1.78 µM. For the same molecule, the TGI [26] was 3.49 µM, the GI50 [27] was 1.52 µM and the TGI [27] was 2.98 µM. For the same molecule, the GI50 [28] was 1.82 µM, the TGI [28] was 3.73 µM and the GI50 [29] was 2.36 µM. The TGI [29] was 6.39 µM, the GI50 [30] was 1.97 µM and the TGI [30] was 4.14 µM. For the same molecule, the GI50 [31] was 1.78 µM, the TGI [31] was 3.32 µM and the GI50 [32] was 3.4 µM. It also gave a TGI [32] of 11.4 µM, a GI50 [33] of 1.83 µM and a TGI [33] of 3.65 µM. It also gave a GI50 [34] of 1.7 µM, a TGI [34] of 3.51 µM and a GI50 [35] of 2.7 µM. It also gave a TGI [35] of 8.25 µM, a GI50 [36] of 2 µM and a TGI [36] of 4.39 µM. It also gave a GI50 [37] of 2.33 µM, a TGI [37] of 5.83 µM and a GI50 [38] of 2.06 µM. It also gave a TGI [38] of 5.03 µM, a GI50 [39] of 1.81 µM and a TGI [39] of 4.65 µM. The GI50 [40] was 1.9 µM, the TGI [40] was 3.67 µM and the GI50 [41] was 1.96 µM. It also gave a TGI [41] of 4.14 µM, a GI50 [42] of 1.76 µM and a TGI [42] of 4.19 µM. It also gave a GI50 [43] of 1.77 µM, a TGI [43] of 3.36 µM and a GI50 [44] of 1.36 µM. For the same molecule, the TGI [44] was 2.9 µM, the GI50 [45] was 1.75 µM and the TGI [45] was 3.14 µM. It also gave a GI50 [46] of 1.46 µM, a TGI [46] of 2.79 µM and a GI50 [47] of 1.75 µM. For the same molecule, the TGI [47] was 3.38 µM, the GI50 [48] was 2.28 µM and the TGI [48] was 5.39 µM. The GI50 [49] was 1.59 µM, the TGI [49] was 3.1 µM and the GI50 [50] was 1.48 µM. The TGI [50] was 3.04 µM, the GI50 [51] was 2.07 µM and the TGI [51] was 4.97 µM. It also gave a GI50 [52] of 2.01 µM, a TGI [52] of 3.89 µM and a GI50 [53] of 1.82 µM. The TGI [53] was 3.76 µM, the GI50 [54] was 1.77 µM and the TGI [54] was 3.26 µM. It also gave a GI50 [55] of 1.8 µM, a TGI [55] of 3.47 µM and a GI50 [56] of 1.72 µM. The TGI [56] was 3.2 µM, the GI50 [57] was 2.14 µM and the TGI [57] was 5.54 µM.

Reference: PubChem BioAssay (NCI)
